Source: ChEMBL document CHEMBL1151202, “New imidazole alkaloids from the Indonesian sponge Leucetta chagosensis” (J Nat Prod, 2004)
Activity calls are given as the source filed them. The rule behind the calls is not given here.

Legend:
[1] = tested on: Artemia salina; assay: Toxicity in Artemia salina at 20 ug/mL; type: organism-based; conditions: in vivo
[2] = tested on: Cladosporium herbarum; assay: Antifungal activity against Cladosporium herbarum DSM 63422 at 20 ug/disk after 24 hrs by agar plate diffusion assay; type: functional
[3] = tested on: PC-12; assay: Cytotoxicity against rat PC12 cells by MTT assay; type: functional, cell-based
[4] = tested on: L5178Y; assay: Cytotoxicity against mouse L5178Y cells at 10 ug/mL by MTT assay relative to control; type: functional
[5] = tested on: HeLa; assay: Cytotoxicity against human HeLa cells at 10 ug/mL by MTT assay relative to control; type: functional

SMILES: COc1ccc(-c2c3cc(O)c(OC)cc3cc3c2[nH]c(=N)n3C)cc1 [KEALIININE A]
- Activity [1]: 50%
- Activity [2]: inactive

SMILES: COc1ccc(Cc2[nH]c(=N)n(C)c2Cc2cc(OC)c(O)c(OC)c2)cc1 [NAAMINE G]
- Activity [1]: 10%
- zone of inhibition at 20 µg/disc ([2]; DSM 63422, 24 h, read-out: IZ): 20 mm
- Activity [3]: inactive
- Activity [4]: 46%
- Activity [5]: 29%
